Source: ChEMBL document CHEMBL1201862, “PubChem BioAssay data set” (2004)
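Interpolation was linear, between the two tested concentrations surrounding the appropriate level; five concentrations were tested over 48 hours in 96-well plates. GI50 is the concentration that inhibits growth by half.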 Activity calls are given as the source filed them. Cut-off read from the data, not from the text of the source: active = GI50 up to about 1.1 µM and inactive = higher.

Columns and labels:
Test in all cases: NCI anticancer screen, dose series, 48 h
A549 = tested on: A549
BT-549 = tested on: BT-549
CAKI-1 = tested on: CAKI-1
COLO 205 = tested on: COLO 205
HL-60 = tested on: HL-60
Hs-578T = tested on: Hs-578T
LOX IMVI = tested on: LOX IMVI
NCI-H23 = tested on: NCI-H23
NCI-H460 = tested on: NCI-H460
NCI-H522 = tested on: NCI-H522
OVCAR-3 = tested on: OVCAR-3
OVCAR-4 = tested on: OVCAR-4
RPMI-8226 = tested on: RPMI-8226
SF-295 = tested on: SF-295
SK-MEL-5 = tested on: SK-MEL-5
SK-OV-3 = tested on: SK-OV-3
SNB-19 = tested on: SNB-19
SNB-75 = tested on: SNB-75
TK-10 = tested on: TK-10
UACC-62 = tested on: UACC-62

Row | Compound | GI50 (A549) | GI50 (BT-549) | GI50 (CAKI-1) | GI50 (COLO 205) | GI50 (HL-60) | GI50 (Hs-578T) | GI50 (LOX IMVI) | GI50 (NCI-H23) | GI50 (NCI-H460) | GI50 (NCI-H522) | GI50 (OVCAR-3) | GI50 (OVCAR-4) | GI50 (RPMI-8226) | GI50 (SF-295) | GI50 (SK-MEL-5) | GI50 (SK-OV-3) | GI50 (SNB-19) | GI50 (SNB-75) | GI50 (TK-10) | GI50 (UACC-62)
1 | CNC(=O)OCc1nc(SSC(C)(C)C)n(C)c1COC(=O)NC | 14.2 µM (inactive) | 1.47 µM (inactive) | 1.82 µM (inactive) | 1.59 µM (inactive) | 0.863 µM (active) | 2.22 µM (inactive) | 3.58 µM (inactive) | 2.71 µM (inactive) | 10.7 µM (inactive) | 1.16 µM (inactive) | 2.1 µM (inactive) | 2.01 µM (inactive) | 2.54 µM (inactive) | 17.1 µM (inactive) | 5.98 µM (inactive) | 17.1 µM (inactive) | 18 µM (inactive) | 8.57 µM (inactive) | 6.11 µM (inactive) | 1.95 µM (inactive)
2 | CCCCCC(CO)C(O)(C(F)(F)F)C(F)(F)F (stereo unspecified) | > 10 µM (inactive) | > 10 µM (inactive) | > 10 µM (inactive) | > 10 µM (inactive) | > 10 µM (inactive) | > 10 µM (inactive) | > 10 µM (inactive) | > 10 µM (inactive) | > 10 µM (inactive) | > 10 µM (inactive) | > 10 µM (inactive) | > 10 µM (inactive) | > 10 µM (inactive) | > 10 µM (inactive) | > 10 µM (inactive) | > 10 µM (inactive) | > 10 µM (inactive) | > 10 µM (inactive) | > 10 µM (inactive) | > 10 µM (inactive)
3 | CN(CCNCc1cn(C)c2c1ccc1ccccc12)CCNCc1cn(C)c2c1ccc1ccccc12 | 1.45 µM (inactive) | 1.57 µM (inactive) | 1.73 µM (inactive) | 0.948 µM (active) | 1.06 µM (active) | 1.64 µM (inactive) | 1.52 µM (inactive) | 1.64 µM (inactive) | 0.583 µM (active) | 1.77 µM (inactive) | 1.84 µM (inactive) | 1.33 µM (inactive) | 2.84 µM (inactive) | 1.79 µM (inactive) | 1.87 µM (inactive) | 1.76 µM (inactive) | 1.39 µM (inactive) | 1.21 µM (inactive) | 1.64 µM (inactive) | 1.67 µM (inactive)
4 | COc1ccc(C2SC(=N)Nc3c2c(C)nn3C(=O)c2ccc(Cl)cc2)cc1 (stereo unspecified) | > 10 µM (inactive) | > 10 µM (inactive) | > 10 µM (inactive) | > 10 µM (inactive) | > 10 µM (inactive) | > 10 µM (inactive) | > 10 µM (inactive) | > 10 µM (inactive) | > 10 µM (inactive) | > 10 µM (inactive) | > 10 µM (inactive) | > 10 µM (inactive) | > 10 µM (inactive) | > 10 µM (inactive) | > 10 µM (inactive) | > 10 µM (inactive) | > 10 µM (inactive) | > 10 µM (inactive) | > 10 µM (inactive) | > 10 µM (inactive)
5 | CC1=NN(C(=O)c2ccncc2)C(=O)C1/N=N/c1ccc2ccccc2c1 (stereo unspecified) | 28.1 µM (inactive) | > 100 µM (inactive) | > 100 µM (inactive) | 18.7 µM (inactive) | 1.71 µM (inactive) | 5.2 µM (inactive) | 30.1 µM (inactive) | > 64.3 µM (inactive) | 21.5 µM (inactive) | > 100 µM (inactive) | 28.1 µM (inactive) | > 100 µM (inactive) | > 50.6 µM (inactive) | 91 µM (inactive) | 19.2 µM (inactive) | > 100 µM (inactive) | > 100 µM (inactive) | > 100 µM (inactive) | 60.3 µM (inactive) | 44.2 µM (inactive)
6 | COc1ccc(-c2cc3c(c4cc(OC)ccc24)C(=O)OC3=O)cc1 | > 100 µM (inactive) | > 100 µM (inactive) | > 100 µM (inactive) | > 100 µM (inactive) | > 100 µM (inactive) | > 100 µM (inactive) | > 100 µM (inactive) | > 100 µM (inactive) | > 100 µM (inactive) | > 100 µM (inactive) | > 100 µM (inactive) | > 100 µM (inactive) | > 100 µM (inactive) | > 100 µM (inactive) | > 100 µM (inactive) | > 100 µM (inactive) | > 100 µM (inactive) | 68.1 µM (inactive) | > 100 µM (inactive) | > 100 µM (inactive)
7 | CN(C)CC1CN(C(=O)Nc2ccccc2)C(=N)O1 (stereo unspecified) | > 100 µM (inactive) | > 100 µM (inactive) | > 100 µM (inactive) | > 100 µM (inactive) | > 100 µM (inactive) | > 100 µM (inactive) | > 100 µM (inactive) | > 100 µM (inactive) | > 100 µM (inactive) | > 100 µM (inactive) | > 100 µM (inactive) | > 100 µM (inactive) | > 100 µM (inactive) | > 100 µM (inactive) | > 100 µM (inactive) | > 100 µM (inactive) | > 100 µM (inactive) | > 100 µM (inactive) | > 100 µM (inactive) | > 100 µM (inactive)
8 | COc1ccc(OC)c(NC(=O)C(=O)Nn2c(S)nc3ccccc3c2=O)c1 | > 100 µM (inactive) | > 100 µM (inactive) | > 100 µM (inactive) |  | > 100 µM (inactive) | > 100 µM (inactive) | > 100 µM (inactive) | > 100 µM (inactive) | > 100 µM (inactive) | > 100 µM (inactive) | > 100 µM (inactive) | > 100 µM (inactive) | > 100 µM (inactive) | > 100 µM (inactive) | > 100 µM (inactive) | > 100 µM (inactive) | > 100 µM (inactive) | > 100 µM (inactive) | > 100 µM (inactive) | > 100 µM (inactive)
9 | O=C(NC(Cc1c[nH]c2ccccc12)C(=O)O)/C(=C/c1ccccc1)NC(=O)c1ccccc1 (stereo unspecified) | 38.2 µM (inactive) | 43.8 µM (inactive) | > 95.1 µM (inactive) | > 100 µM (inactive) | 77.6 µM (inactive) | 28.5 µM (inactive) | > 100 µM (inactive) | > 83.2 µM (inactive) | 68.1 µM (inactive) | 25.3 µM (inactive) | 38.4 µM (inactive) | 71.1 µM (inactive) | 32.4 µM (inactive) | 36.4 µM (inactive) | 37 µM (inactive) | 54.2 µM (inactive) | > 92 µM (inactive) | 32.7 µM (inactive) | > 72.8 µM (inactive) | 41.2 µM (inactive)
10 | CSc1c2c(C)n[nH]c2nn1-c1ccccc1 | > 100 µM (inactive) | 80 µM (inactive) | 21.1 µM (inactive) | 62.2 µM (inactive) | 29.6 µM (inactive) | > 100 µM (inactive) | 24.1 µM (inactive) | > 100 µM (inactive) | > 100 µM (inactive) | 5.01 µM (inactive) | 39.3 µM (inactive) | 53.7 µM (inactive) | > 100 µM (inactive) |  | > 100 µM (inactive) | > 100 µM (inactive) | > 100 µM (inactive) | > 100 µM (inactive) | > 100 µM (inactive) | 68.1 µM (inactive)
11 | COc1ccc2c(c1)CN1C(=N2)CSC1c1c(Cl)cccc1[N+](=O)[O-] (stereo unspecified) | 31.9 µM (inactive) | 14.9 µM (inactive) | 23.1 µM (inactive) | 11.4 µM (inactive) | 11.5 µM (inactive) | 24.7 µM (inactive) | 18.5 µM (inactive) | 15.8 µM (inactive) | 14.7 µM (inactive) | 23.7 µM (inactive) |  | 31.5 µM (inactive) | 15.4 µM (inactive) | 21.8 µM (inactive) | 12.8 µM (inactive) | 39.7 µM (inactive) | 29.9 µM (inactive) | 27.8 µM (inactive) | 28.2 µM (inactive) | 20 µM (inactive)
12 | O=P(O)(O)OP(=O)(O)O | > 100 µM (inactive) | > 100 µM (inactive) | > 100 µM (inactive) | > 100 µM (inactive) | > 100 µM (inactive) | > 100 µM (inactive) | > 100 µM (inactive) | > 100 µM (inactive) | > 100 µM (inactive) | > 100 µM (inactive) | > 100 µM (inactive) | > 100 µM (inactive) | > 100 µM (inactive) |  | > 100 µM (inactive) | > 100 µM (inactive) | > 100 µM (inactive) | > 100 µM (inactive) | > 100 µM (inactive) | > 100 µM (inactive)
13 | O=C(NC(c1ccccc1)C(O)C(=O)OCc1ccc2c(c1)C(=O)c1ccccc1C2=O)c1ccccc1 (stereo unspecified) | 9.91 µM (inactive) | 35.3 µM (inactive) | 8.65 µM (inactive) | 48.4 µM (inactive) | > 83.6 µM (inactive) | 34.8 µM (inactive) | 13.2 µM (inactive) | 12 µM (inactive) | 14.9 µM (inactive) | 14.8 µM (inactive) | 12.6 µM (inactive) | 2.2 µM (inactive) | 35.8 µM (inactive) | 10.6 µM (inactive) | 13.6 µM (inactive) | 5.18 µM (inactive) | 5.47 µM (inactive) | 4.37 µM (inactive) | 15.2 µM (inactive) | 14.7 µM (inactive)
14 | CC(=O)O[C@H]1C[C@]2(O)[C@@H]3CC[C@@H]4C[C@@H](O)CC[C@]4(C)[C@H]3CC[C@]2(C)[C@H]1C1=CC(=O)OC1 | < 0.0144 µM (active) | 0.0284 µM (active) | 0.034 µM (active) | 0.236 µM (active) | 0.0382 µM (active) | 0.0675 µM (active) | 0.0585 µM (active) | 0.0366 µM (active) | 0.0289 µM (active) | 0.0251 µM (active) | 0.0389 µM (active) | 0.0362 µM (active) | 0.0982 µM (active) | 0.0391 µM (active) | 0.0318 µM (active) | 0.214 µM (active) | 0.381 µM (active) | 0.153 µM (active) | 0.0796 µM (active) | 0.211 µM (active)
